Test results as given in US10392381B2, “Prevention and treatment of non-alcoholic fatty liver disease” (Ohio University, priority 2014, dated 2019).

Columns and labels:
Patients having NAFLD = assay: Therapeutic use to treat NAFLD in patients (Example 11, contemplated); type: in vivo, human; conditions: once daily oral dose of 3 mg/kg
Experimental: Contemplated Experimental Protocol. Patients having NAFLD are prescribed COB-204, COB-214, COB-152, or COB-187 to reduce the fat content in their liver. After determination of a baseline level of fat content in each of the patients' livers, each patient takes a once daily oral dose of 3 mg/kg of body weight of the COB-204, COB-214, COB-152, or COB-187, during which fat content in each patient's liver tissue is determined via liver function testing, liver ultrasound, and liver biopsy.

[1] = system: C57BL/6J mice on a HFD (liver tissue); assay: Prevention of NAFLD in C57BL/6J mice fed a HFD (Example 7): macroscopic observation, hematoxylin and eosin histology, liver triglyceride quantification; type: in vivo; conditions: C57BL/6J mice on HFD; for mean triglyceride concentration (mg/g liver) in liver tissue compared with HFD or HFD + DMSO mice / Percentage of Triglyceride Values (mg/g liver) Below the Mean of the HFD + Sham Group / macroscopic observation of fatty liver disease compared with sham or DMSO injection: 1 mg/kg intraperitoneal once daily for 6 weeks; for mean triglyceride concentration (mg/g liver) in liver tissue compared with HFD or HFD + DMSO mice: comparison of means in FIG. 3; for Percentage of Triglyceride Values (mg/g liver) Below the Mean of the HFD + Sham Group: middle, right and left liver lobes (FIG. 3), 1 mg/kg; for macroscopic observation of fatty liver disease compared with sham or DMSO injection: removed liver tissue; for histological examination of hepatic fat accumulation compared with sham or DMSO injection: 1 mg/kg intraperitoneal once daily, middle lobe of liver, hematoxylin and eosin (FIG. 4)
Experimental: Quantification of triglycerides of the middle, right, and left lobes was performed to ensure that accumulation (or lack thereof) of triglycerides was similar in each lobe of the liver and to ensure that a representative analysis of triglyceride accumulation in the liver as a whole was assessed. The caudate lobe was excluded since the caudate lobe is very small compared to the middle, right, and left lobes. Triglycerides were quantified in accordance with the following general protocol, based upon the Salmon and Flatt Method of Liver Saponification. 50-100 mg of liver tissue was placed into an Eppendorf tube and weighed. Equal volume per weight of 3 M KOH (in 65% EtOH) was added to the tube and vortexed. The tube was placed at 70° C. for 1 hr to activate digestion. The tubes were vortexed every 15 minutes. The tube was set at room temperature overnight to allow for complete digestion, and was vortexed periodically. The sample was diluted to a final concentration of 100 mg of liver tissue per 600 μl fluid; the sample was diluted by adding 2 M Tris-HCl (un-pHed) to a final concentration of 50 mM. Where a second dilution was required, the sample was diluted using 50 mM Tris-HCl (pH 7.5). Triglycerides-GPO (0.5 mL, liquid; Pointe Scientific Cat. No. T7532-500; Fisher Scientific, Pittsburgh, Pa.) were aliquoted into Eppendorf tubes and warmed in a 37° C. water bath for 5-10 minutes. Glycerol standards (0, 1, 2.5, 5, 7.5 and 10 mmol/L) were made by diluting 10 mmol/L stock of glycerol, such as, e.g., with 50 mM Tris-HCl. 5 μL of the sample and glycerol standards (0, 1, 2.5, 5, 7.5 and 10 mmol/L) were added to 0.5 mL of the triglycerides-GPO, mixed, and incubated at room temperature for 5 minutes. The mixture was then vortexed and added (200 μL) to each well of a 96-well flat-bottom ELISA plate (in triplicate). Absorbance (i.e., optical density) was read at 500 nm. The concentrations of the samples were determined via use of a plot of glycerol standards concentration (mmol/L) with respect to optical density (i.e., O.D.) at 500 nm. The concentration of glycerol (mg glycerol/g tissue) was then calculated and triglyceride concentration was determined, in accordance with calculations known to those of ordinary skill in the art.
Experimental Protocol. 7 week old male C57BL/6J mice (i.e., a mouse model of obesity-induced insulin resistance and Type 2 Diabetes Mellitus) were placed on a HFD (i.e., having a fat content of 60%, a protein content of 20%, and a carbohydrate content of […], N=50). The C57BL/6J mice on the HFD were divided into five groups, wherein one such group was immediately given an intraperitoneal sham injection (i.e., Group 1, serving as a stress control N=10), another group was immediately given an intraperiteonal injection of dimethyl sulfoxide (hereinafter, “DMSO”, i.e., Group 2, serving as a vehicle control, N=10), another group was immediately given an intraperitoneal injection of 1 mg/kg COB-204 (i.e., Group 3, N=10), another group was immediately given an intraperitoneal injection of 1 mg/kg COB-214 (i.e., Group 4, N=10), and another group was immediately given an intraperitoneal injection of 1 mg/kg COB-187 (i.e., Group 5, N=10). Such injections were initiated with the HFD and were given to the C57BL/6J mice on the HFD once daily for a period of 6 weeks. Food intake and total body weight of the C57BL/6J mice were measured weekly.
At 0 weeks, some of the C57BL/6J mice from each of Groups 1-5 were euthanized (N=5). Liver tissue of the C57BL/6J mice euthanized at 0 weeks was harvested and divided into lobes, including the middle lobe, the right lobe, and the left lobe, for morphological (i.e., hematoxylin and eosin staining) and molecular analysis (i.e., quanitification of triglycerides). The caudate lobe was excluded from such division as the caudate lobe is very small compared to the middle, right, and left lobes. […]

[2] = system: C57BL/6J mice on an HFD with NAFLD (liver tissue); assay: Treatment of NAFLD in C57BL/6J mice fed a HFD (Example 8, contemplated); type: in vivo; conditions: C57BL/6J mice on HFD after NAFLD is observed; once daily ip 1, 3 or 10 mg/kg/day for up to 16 weeks (24 weeks if no effect)
Experimental: Contemplated Experimental Protocol. C57BL/6J mice are placed on an HFD containing 60% fat (by % Kcal) (Diet #D12492, Research Diets, Inc.) for a period of weeks (as determined by the results of Example 6) until development of NAFLD is observed and clearly distinguishable from LFD-fed mice of the same age (between 4-8 weeks). At the time or after NAFLD is observed, once daily ip injections of COB-204, COB-214, COB-152, COB-187, DMSO, or sham are administered. Five mice are then euthanized weekly thereafter to characterize the effects of the COB-204, COB-214, COB-152, COB-187, DMSO, and/or sham on treatment of NAFLD for the period of up to 16 weeks post-initiation of the COB-204, COB-214, COB-152, COB-187, DMSO, and sham administration. The period of time for which treatment is administered will be extended to 24 weeks if no effect of the COB-204, COB-214, COB-152, or COB-187 administration on treatment of NAFLD is observed. The following Table further illustrates the experimental design:
If no effect of the COB-204, COB-214, COB-152, or COB-187 administration on treatment of NAFLD is observed by 16 weeks post-initiation of the COB-204, COB-214, COB-152, COB-187, DMSO, and sham administration, a subsequent study is performed wherein the period of time is extended to 24 weeks of the COB-204, COB-214, COB-152, and COB-187 administration, with 5 mice euthanized weekly from weeks 17-24 as previously described. The following Table further illustrates the experimental design:
NAFLD is evaluated in the liver of the HFD mice macroscopically, microscopically, and molecularly. More specifically, following euthanasia, the liver of each mouse is removed, weighed, and photographs taken thereof for macroscopic and/or gross observation of NAFLD. Then, the liver of each mouse is split in half, wherein one half is used for microscopic analysis of NAFLD and the remaining half is used for molecular analysis of NAFLD (i.e., quantification of triglycerides). Quantification of triglycerides is performed in accordance with the general protocol described in Example 6.

[3] = system: Patients at risk for developing NAFLD; assay: Therapeutic use to prevent development of NAFLD in patients at risk (Example 10, contemplated); type: in vivo, human; conditions: once daily oral dose of 1 mg/kg, chronically
Experimental: Contemplated Experimental Protocol. Patients at risk for developing NAFLD are prescribed COB-204, COB-214, COB-152, or COB-187 to prevent excess accumulation of fat. Each patient takes a once daily oral dose of 1 mg/kg of body weight of the COB-204, COB-214, COB-152, or COB-187, chronically, during which fat content in the liver is determined via liver function testing, liver ultrasound, and liver biopsy.

CCCn1c(-c2cccnc2)csc1=S [COB-214]
fat content in the patient's liver (Patients having NAFLD): reduced relative to the baseline level
mean triglyceride concentration (mg/g liver) in liver tissue compared with HFD or HFD + DMSO mice [1]: lower mean triglyceride concentration
Percentage of Triglyceride Values (mg/g liver) Below the Mean of the HFD + Sham Group [1]: 87%
macroscopic observation of fatty liver disease compared with sham or DMSO injection [1]: much less fatty liver disease
histological examination of hepatic fat accumulation compared with sham or DMSO injection [1]: much less hepatic fat accumulation
fat content in the liver tissue of the mice [2]: reduced relative to a baseline level
excess accumulation of fat in the liver of patients [3]: no excess accumulation of fat

OC1(c2ccccc2)CSC(=S)N1Cc1ccncc1 (stereo not drawn) [COB-187]
fat content in the patient's liver (Patients having NAFLD): reduced relative to the baseline level
mean triglyceride concentration (mg/g liver) in liver tissue compared with HFD or HFD + DMSO mice [1]: lower mean triglyceride concentration
Percentage of Triglyceride Values (mg/g liver) Below the Mean of the HFD + Sham Group [1]: 79%
macroscopic observation of fatty liver disease compared with sham or DMSO injection [1]: much less fatty liver disease
histological examination of hepatic fat accumulation compared with sham or DMSO injection [1]: much less hepatic fat accumulation
fat content in the liver tissue of the mice [2]: reduced relative to a baseline level
excess accumulation of fat in the liver of patients [3]: no excess accumulation of fat

OC1(c2ccccc2)CSC(=S)N1Cc1cccnc1 (stereo not drawn) [COB-152]
fat content in the patient's liver (Patients having NAFLD): reduced relative to the baseline level
fat content in the liver tissue of the mice [2]: reduced relative to a baseline level
excess accumulation of fat in the liver of patients [3]: no excess accumulation of fat

COc1ccc(-c2csc(=S)n2Cc2cccnc2)c(OC)c1 [COB-204]
fat content in the patient's liver (Patients having NAFLD): reduced relative to the baseline level
mean triglyceride concentration (mg/g liver) in liver tissue compared with HFD or HFD + DMSO mice [1]: no effect
Percentage of Triglyceride Values (mg/g liver) Below the Mean of the HFD + Sham Group [1]: 60%
macroscopic observation of fatty liver disease compared with sham or DMSO injection [1]: much less fatty liver disease
histological examination of hepatic fat accumulation compared with sham or DMSO injection [1]: much less hepatic fat accumulation
fat content in the liver tissue of the mice [2]: reduced relative to a baseline level
excess accumulation of fat in the liver of patients [3]: no excess accumulation of fat
